Source: US5164295A, “Method for identifying amyloid protein-extracellular matrix protein affinity altering compounds” (The Upjohn Company, priority 1991, dated 1992)
“And” between values parts separate entries of the source, which are not always exact repeats. Identical values can stand only once. Like-named read-outs stand apart in the source and are kept apart here.

Columns and labels:
AAP695 /s = experiment: ELISA: binding of free HSPG (intact or core protein) to immobilized AAP695 /s
Procedure: (§1) To study the interaction between HSPG and either AAP770 /s, AAP751 /s, AAP695 /s or fibronectin, the AAP proteins and fibronectin were individually immobilized on polystyrene wells and incubated with increasing concentrations of purified HSPG. Fibronectin was used as a test protein because of its known affinity for HSPG. […] To address this concern, the purified protein core of HSPG in place of the intact proteoglycan was utilized to examine the role of the protein component.
(§2) The assay used in studying the interaction between HSPG and protein ligands was an ELISA technique. Briefly, polystyrene micro-titer plates (Linbro, Flow Lab Inc.) were coated with a 100 μl solution, containing 1 μg/ml of the protein of interest (one of the three forms of AAP or fibronectin) in 20 mM NaHCO3 buffer pH 9.6. After incubation overnight at 4° C., the plates were rinsed with 0.15M NaCl, 20 mM Tris-Cl pH 7.5 (TBS). The plates were then incubated with 150 μl of 1% BSA in TBS for 2 hours at 37° C. to block the residual hydrophobic surface on the wells. After rinsing with TBS containing 0.05% (w/v) Tween 20 (TBS-Tween), 100 μl of various concentrations of HSPG in TBS-Tween were added. The plates were left overnight at 4° C., to permit maximum binding of HSPG to the coated proteins. The plates were then washed extensively and incubated for 2 hours at 37° C., with 100 μl of anti-HSPG diluted in TBS-Tween containing 0.1% BSA. […] Finally, after further washing, the bound antibodies were detected by adding an alkaline phosphatase substrate solution (100 μl) containing 2 mg/ml p-nitrophenyl phosphate, 0.1 mM ZnCl2, 1 mM MgCl2 and 100 mM glycine pH 10. […] The absorbance of the released p-nitrophenol was measured at 405 nm with a Titertek Multiscan/MCC 340 (Flow Lab. Ltd.). The amounts of HSPG bound were determined by the net OD405 after substracting the OD from the blank wells in which the HSPG incubation step was omitted. When the actual amounts of HSPG bound were to be calculated, a set of standards (0.05-50 ng/well) of HSPG in NaHCO3 buffer were pre-coated into wells on the same plates as the test proteins. […] The actual amounts of HSPG bound to the test proteins were calculated from the OD405 standard curve produced by the HSPG standards using a Titersoft II E.J.A. software program (Flow Lab. Ltd.). […]
To determine the Kd of the protein-HSPG complex, the binding data were analyzed assuming a thermodynamic equilibrium for the formation of the complex, B, from the ligand in solution, HSPG, and the uncomplexed protein adsorbed to the microtiter well, R, according to the equation: [formula] Due to the nature of the experimental design, nonspecific binding could not be measured directly. […]

AAP751 /s = experiment: ELISA: binding of free HSPG (intact or core protein) to immobilized AAP751 /s; conditions: for Kd: absence of test compounds, mean ± SD, read-out: Kd of HSPG (intact or core protein) complex with AAP751 /s
Procedure: as §1
as §2, with “added.” for “added. The plates were left overnight at 4° C., to permit maximum binding of HSPG to the coated proteins. The plates were then washed extensively and incubated for 2 hours at 37° C., with 100 μl of anti-HSPG diluted in TBS-Tween containing 0.1% BSA.”

AAP770 /s = experiment: ELISA: binding of free HSPG to immobilized AAP770 /s; conditions: absence of test compounds, mean ± SD, read-out: Kd of HSPG complex with AAP770 /s
Procedure: as §1
(§3) The assay used in studying the interaction between HSPG and protein ligands was an ELISA technique. […] Finally, after further washing, the bound antibodies were detected by adding an alkaline phosphatase substrate solution (100 μl) containing 2 mg/ml p-nitrophenyl phosphate, 0.1 mM ZnCl2, 1 mM MgCl2 and 100 mM glycine pH 10. […] The absorbance of the released p-nitrophenol was measured at 405 nm with a Titertek Multiscan/MCC 340 (Flow Lab. Ltd.). The amounts of HSPG bound were determined by the net OD405 after substracting the OD from the blank wells in which the HSPG incubation step was omitted. When the actual amounts of HSPG bound were to be calculated, a set of standards (0.05-50 ng/well) of HSPG in NaHCO3 buffer were pre-coated into wells on the same plates as the test proteins. […]

fibronectin = experiment: ELISA: binding of free HSPG (intact or core protein) to immobilized fibronectin; design: species or system bovine; conditions: absence of test compounds; mean ± SD; read-out: Kd of HSPG (intact or core protein) complex with fibronectin
Text: Fibronectin (from bovine plasma), heparin (grade II from porcine intestinal mucosa, average molecular weight=[…]), heparan sulfate, chondroitin sulfate, dextran sulfate, BSA, and alkaline phosphatase substrate were obtained from Sigma, St. Louis, Mo. Alkaline phosphatase conjugated goat anti-rabbit IgG was obtained from Boehringer-Manneheim, and heparitinase from ICN Biochemicals.
To study the interaction between HSPG and either AAP770 /s, AAP751 /s, AAP695 /s or fibronectin, the AAP proteins and fibronectin were individually immobilized on polystyrene wells and incubated with increasing concentrations of purified HSPG. Fibronectin was used as a test protein because of its known affinity for HSPG. […]
as §3, with “omitted.” for “omitted. When the actual amounts of HSPG bound were to be calculated, a set of standards (0.05-50 ng/well) of HSPG in NaHCO3 buffer were pre-coated into wells on the same plates as the test proteins.”

BSA = experiment: ELISA control: binding of HSPG to BSA coated wells; design: species or system bovine
Procedure: The assay used in studying the interaction between HSPG and protein ligands was an ELISA technique. Briefly, polystyrene micro-titer plates (Linbro, Flow Lab Inc.) were coated with a 100 μl solution, containing 1 μg/ml of the protein of interest (one of the three forms of AAP or fibronectin) in 20 mM NaHCO3 buffer pH 9.6. After incubation overnight at 4° C., the plates were rinsed with 0.15M NaCl, 20 mM Tris-Cl pH 7.5 (TBS). The plates were then incubated with 150 μl of 1% BSA in TBS for 2 hours at 37° C. to block the residual hydrophobic surface on the wells. After rinsing with TBS containing 0.05% (w/v) Tween 20 (TBS-Tween), 100 μl of various concentrations of HSPG in TBS-Tween were added. […] Finally, after further washing, the bound antibodies were detected by adding an alkaline phosphatase substrate solution (100 μl) containing 2 mg/ml p-nitrophenyl phosphate, 0.1 mM ZnCl2, 1 mM MgCl2 and 100 mM glycine pH 10. […] The absorbance of the released p-nitrophenol was measured at 405 nm with a Titertek Multiscan/MCC 340 (Flow Lab. Ltd.). The amounts of HSPG bound were determined by the net OD405 after substracting the OD from the blank wells in which the HSPG incubation step was omitted. When the actual amounts of HSPG bound were to be calculated, a set of standards (0.05-50 ng/well) of HSPG in NaHCO3 buffer were pre-coated into wells on the same plates as the test proteins. […]

Kd (AAP695 /s; absence of test compounds, mean ± SD, listed as HSPG, read-out: Kd of HSPG (intact or core protein) complex with AAP695 /s): 0.88 nM and ~0.9 nM
Kd (AAP695 /s; absence of test compounds, mean ± SD, listed as intact HSPG, read-out: Kd of HSPG (intact or core protein) complex with AAP695 /s): 0.9 ± 0.25 nM
Kd (AAP695 /s; absence of test compounds, mean ± SD, read-out: Kd of HSPG (intact or core protein) complex with AAP695 /s): 0.88 ± 0.35 nM
Kd (AAP695 /s; heparin 400 μg/ml, read-out: Kd of HSPG (intact or core protein) complex with AAP695 /s in presence of heparin): 3.56 ± 1.78 nM
Kd (AAP751 /s; listed as HSPG): 10.2 nM and 9 to 10 nM
Kd (AAP751 /s): 10.2 ± 2.45 nM
Bmax, total binding capacity (AAP751 /s; typical experiment using AAP751 /s): 15.9±0.2 ng HSPG
Kd (AAP770 /s; listed as HSPG): 9.13 nM and 9 to 10 nM
Kd (AAP770 /s): 9.13 ± 1.06 nM
Kd (fibronectin): 0.98 nM
binding of HSPG to BSA in comparison to the tested proteins (BSA): negligible
Substance: heparan sulfate proteoglycan [Intact HSPG]
